Our source for the TGI and GI50 values is PubChem BioAssay (NCI).

“And” between values parts separate entries of the source, which are not always exact repeats. Equal values may be shown once.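 Five concentrations, 48 hours, 96-well plates. Here, GI50 denotes the concentration required for 50% inhibition of growth. At the TGI there is no net growth.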

Test systems include MOLT-4 leukemia; U251 CNS; SF-268 CNS; K-562 leukemia; SK-MEL-28 melanoma; A498 renal; HL-60(TB) leukemia; SW-620 colon; NCI-H460 lung; NCI/ADR-RES ovarian.
What all share (test): growth of human tumour cells (NCI), 48 h

As to `CCC1(C(=O)OC)CCc2c(OC)ccc(OC)c2C1=O` (centres undefined), the TGI with MOLT-4 leukemia, in the experiment on U251 CNS, with SF-268 CNS, in the experiment with K-562 leukemia, with SK-MEL-28 melanoma and with A498 renal was > 100 µM each time. For the same molecule, the TGI with HL-60(TB) leukemia, in the experiment on SW-620 colon and with NCI-H460 lung was > 100 µM in each case.

With `CN(C)CC/C(=N\Nc1ccc(Cl)c(Cl)c1)c1ccccc1`, the TGI stood at 5.9 µM in the experiment with MOLT-4 leukemia; 3.28 µM with U251 CNS; 3.48 µM with SF-268 CNS; 4.68 µM in the experiment with K-562 leukemia; 6.43 µM in the experiment with SK-MEL-28 melanoma; 9.13 µM in the experiment with A498 renal. For the same molecule, the TGI in the experiment with HL-60(TB) leukemia was determined as 5.8 µM; with SW-620 colon, 3.68 µM; in the experiment with NCI-H460 lung it was 3.65 µM.

`O=C1[C@@H]2C3SC(c4ccccc43)[C@@H]2C(=O)N1c1ccccc1`: the TGI in the experiment with MOLT-4 leukemia, in the experiment on U251 CNS, in the experiment with SF-268 CNS, with K-562 leukemia, in the experiment with SK-MEL-28 melanoma and with A498 renal was > 100 µM in each case. The TGI in the experiment with HL-60(TB) leukemia, with SW-620 colon and in the experiment on NCI-H460 lung was > 100 µM each time.

Take `NC(=S)NNC(=O)CCC(=O)Nc1ccc(Cl)cc1Cl`: the TGI with MOLT-4 leukemia, in the experiment with U251 CNS, with SF-268 CNS, in the experiment with K-562 leukemia, in the experiment on SK-MEL-28 melanoma and in the experiment with A498 renal was > 100 µM in each case. Further, the TGI in the experiment with HL-60(TB) leukemia, in the experiment on SW-620 colon and in the experiment on NCI-H460 lung was > 100 µM throughout.

As for `CCC[CH2][Ge]([CH2]CCC)([CH2]CCC)[O]C(=O)C(OC)c1ccccc1` (centres undefined), the GI50 in the experiment on MOLT-4 leukemia is 3740 nM; in the experiment on U251 CNS, 31.4 µM; in the experiment on SF-268 CNS it was 40900 nM; in the experiment on K-562 leukemia, 2070 nM; in the experiment on SK-MEL-28 melanoma, 52300 nM; in the experiment with A498 renal it was 46.8 µM. The GI50 in the experiment on HL-60(TB) leukemia was 2960 nM; in the experiment with SW-620 colon it was 47.3 µM; in the experiment with NCI-H460 lung, 22.1 µM. The TGI was > 60.6 µM in the experiment with MOLT-4 leukemia; > 100 µM in the experiment on U251 CNS; > 100 µM in the experiment on SF-268 CNS; > 100 µM with K-562 leukemia; > 100 µM in the experiment with SK-MEL-28 melanoma; > 100 µM in the experiment on A498 renal. Besides, the TGI in the experiment with HL-60(TB) leukemia was > 26.1 µM; with SW-620 colon, > 100 µM; in the experiment with NCI-H460 lung, > 100 µM.

`CCOC(=O)C(Cc1ccccc1)NC(=O)OC(C)(C)C` (centres undefined): the TGI in the experiment with MOLT-4 leukemia, in the experiment on U251 CNS, in the experiment on SF-268 CNS, in the experiment on K-562 leukemia, with SK-MEL-28 melanoma and in the experiment with A498 renal was > 100 µM each time. Moreover, the TGI with HL-60(TB) leukemia, with SW-620 colon and in the experiment with NCI-H460 lung was > 100 µM in each case.

Turning to `CC(C)(C)OC(=O)NC1CCC[C@H]1O` (some centres undefined), the TGI in the experiment with MOLT-4 leukemia, with U251 CNS, with SF-268 CNS, with K-562 leukemia, with SK-MEL-28 melanoma and in the experiment with A498 renal was > 100 µM throughout. Moreover, the TGI in the experiment with SW-620 colon and with NCI-H460 lung was > 100 µM each time.

As to `ClC1=NC(Cl)C(Cl)=N/C1=N\c1ncn[nH]1` (centres undefined), the GI50 is 3.15 µM in the experiment on NCI/ADR-RES ovarian; 4.88 µM in the experiment with U251 CNS; 2240 nM in the experiment with SF-268 CNS; 1950 nM with SK-MEL-28 melanoma; 17.8 µM in the experiment on A498 renal; 2.06 µM with SW-620 colon. Besides, the GI50 in the experiment on NCI-H460 lung was 3.65 µM. In addition, the TGI in the experiment with NCI/ADR-RES ovarian came out at 8.79 µM; in the experiment on U251 CNS, 17 µM; in the experiment with SF-268 CNS, 5.22 µM; in the experiment on SK-MEL-28 melanoma, 4.04 µM; in the experiment on A498 renal it was 33.4 µM; in the experiment on SW-620 colon, 4.3 µM. The molecule also gave a TGI in the experiment with NCI-H460 lung of 14.9 µM.

As for `O=C(O)CCCCCO`, the TGI with MOLT-4 leukemia, in the experiment with U251 CNS, in the experiment on SF-268 CNS, in the experiment with K-562 leukemia, in the experiment with SK-MEL-28 melanoma and in the experiment on A498 renal was > 100 µM each time. Also, the TGI in the experiment with HL-60(TB) leukemia, in the experiment on SW-620 colon and in the experiment on NCI-H460 lung was > 100 µM throughout.

Consider `Nc1nc(N)c(N=O)c(Nc2ccc(I)cc2)n1`, for which the TGI in the experiment with MOLT-4 leukemia is 65.9 µM; in the experiment with U251 CNS, > 100 µM; in the experiment with SF-268 CNS, 74.1 µM; in the experiment with K-562 leukemia it was > 100 µM; with SK-MEL-28 melanoma, 52.3 µM; in the experiment on HL-60(TB) leukemia, 36.7 µM. The TGI in the experiment with SW-620 colon and in the experiment on NCI-H460 lung was > 100 µM in each case.

`O=C(/C=C/c1ccccc1O)c1cccnc1`: the TGI in the experiment with MOLT-4 leukemia, in the experiment with U251 CNS, with SF-268 CNS, in the experiment with K-562 leukemia, in the experiment on SK-MEL-28 melanoma and in the experiment on A498 renal was > 100 µM in each case. In addition, the TGI in the experiment on HL-60(TB) leukemia, in the experiment with SW-620 colon and in the experiment with NCI-H460 lung was > 100 µM in each case.

Turning to `Nc1ncnc2c(C3OC(CO)C(O)C3O)scc12` (centres undefined), the GI50 was 98.9 nM with MOLT-4 leukemia; 2.45 µM in the experiment on U251 CNS; 1410 nM in the experiment with SF-268 CNS; 1200 nM with SK-MEL-28 melanoma; 0.0518 µM in the experiment with A498 renal. For the same molecule, the TGI was 1.99 µM and 1.9 µM with MOLT-4 leukemia; > 100 µM in the experiment with U251 CNS; 33.3 µM in the experiment with SF-268 CNS; 0.03 µM with K-562 leukemia; 2.64 µM and 7.04 µM with SK-MEL-28 melanoma; 0.324 µM and 2.03 µM with A498 renal. The TGI with HL-60(TB) leukemia was 0.00946 µM; in the experiment with SW-620 colon it was > 100 µM; with NCI-H460 lung, 0.554 µM and 1.12 µM.

For `CC(=O)OC1C/C(C)=C/CCC(C)/C=C/C2(C)CCC(C(C)(C)O)C12` (centres undefined), the TGI in the experiment with MOLT-4 leukemia, in the experiment on U251 CNS, with SF-268 CNS, in the experiment on K-562 leukemia, with SK-MEL-28 melanoma and with A498 renal was > 100 µM in each case. Further, the TGI with HL-60(TB) leukemia is 55.5 µM; in the experiment on SW-620 colon, > 100 µM; with NCI-H460 lung, > 100 µM.
